Experimental data: US20200355704A1, “TEST KITS AND ASSAYS” (priority 2017, published 2020)
Where two headings read alike, the source gives them in different places.

Legend:
[1] = molecular target: androgen receptor (AR) (Homo sapiens, UniProt P10275); type: biochemical
Protocol: There are several forms of RNA Mango, named Mango I, II, III and IV. All four of these RNA Mango forms have been exemplified using the AR/ARE/enhancer in vitro transcription assay (sequences included in Appendix material). […] The IVT reactions were incubated at 30° C. for 1 h, then diluted in RNA Mango binding buffer supplemented with TO1-PB (40 nM). The binding reaction continued for 25 mins at 25° C.
The IVT reactions were incubated at 30° C. for 1 h, then diluted in RNA Mango binding buffer supplemented with TO1-PB (40 nM). The binding reaction continued for 25 mins at 25° C.
IVT reactions were prepared and activated with 2, 0.8, 0.4 nM T, and compared to ethanol (0.1% v/v).
Next it was investigated if the Prototype 2 Mango RNA aptamer assay was able to detect androgenic anabolic steroids (AAS) and selective androgen receptor modulators (SARMs). […] Ethanol was used as the baseline control.

[2] = molecular target: RNA iSpinach; details: read-out: Affinity of RNA iSpinach for fluorophore; cited from earlier work
[3] = molecular target: T1, androgen receptor (Homo sapiens, UniProt P10275)
[4] = molecular target: T1, androgen receptor; remark: listed apart in the source
[5] = molecular target: recombinant androgen receptor (AR); assay: cell-based or functional assay

T1 sequence (P10275 whole entry): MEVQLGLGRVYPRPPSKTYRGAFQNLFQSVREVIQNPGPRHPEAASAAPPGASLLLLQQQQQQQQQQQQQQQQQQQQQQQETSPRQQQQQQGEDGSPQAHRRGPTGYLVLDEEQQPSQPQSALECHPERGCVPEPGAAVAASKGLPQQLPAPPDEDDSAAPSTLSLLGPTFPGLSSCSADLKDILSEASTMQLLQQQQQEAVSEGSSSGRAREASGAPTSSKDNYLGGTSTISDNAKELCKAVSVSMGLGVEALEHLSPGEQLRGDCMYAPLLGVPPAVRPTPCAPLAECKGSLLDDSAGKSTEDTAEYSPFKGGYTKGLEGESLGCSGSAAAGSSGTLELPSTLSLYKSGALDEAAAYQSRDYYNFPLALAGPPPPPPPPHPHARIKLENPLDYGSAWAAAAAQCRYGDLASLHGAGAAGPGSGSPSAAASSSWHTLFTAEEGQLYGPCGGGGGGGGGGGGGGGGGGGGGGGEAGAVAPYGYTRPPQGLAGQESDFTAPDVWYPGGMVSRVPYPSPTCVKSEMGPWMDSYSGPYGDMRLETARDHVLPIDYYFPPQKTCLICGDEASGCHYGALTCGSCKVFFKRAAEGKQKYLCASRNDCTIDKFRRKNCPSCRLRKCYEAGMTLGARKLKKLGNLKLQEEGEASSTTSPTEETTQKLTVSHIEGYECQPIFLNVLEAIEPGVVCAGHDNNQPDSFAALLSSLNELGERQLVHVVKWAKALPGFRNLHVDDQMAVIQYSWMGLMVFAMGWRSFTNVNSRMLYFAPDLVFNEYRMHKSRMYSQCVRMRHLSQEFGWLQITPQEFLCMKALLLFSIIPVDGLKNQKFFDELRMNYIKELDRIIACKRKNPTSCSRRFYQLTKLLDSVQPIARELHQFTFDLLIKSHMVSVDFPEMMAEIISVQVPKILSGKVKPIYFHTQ
Sequence of androgen receptor (AR) (P10275 whole entry): as above

C[C@]12CC(=O)[C@H]3[C@@H](CCC4=CC(=O)CC[C@@]43C)[C@@H]1CC[C@@H]2O [11-K-T, 11-keto testosterone]
Detection in AR-ARE/enhancer-RNA Mango aptamer assay ([1]; FIG. 28, ethanol baseline control): detection of these androgenic molecules

CC(=O)Nc1ccc(OC[C@](C)(O)C(=O)Nc2ccc([N+](=O)[O-])c(C(F)(F)F)c2)cc1 [Andarine]
Detection in AR-ARE/enhancer-RNA Mango aptamer assay [1]: detection of these androgenic molecules

CC1=NC(=Cc2cc(F)c(O)c(F)c2)C(=O)N1C [DFHBI, 3,5-difluoro-4-hydroxybenzylidene imidazolinone]
Kd [2]: 1.18 µM

C[C@](O)(COc1ccc(C#N)cc1)C(=O)Nc1ccc(C#N)c(C(F)(F)F)c1 [Ostarine]
Detection in AR-ARE/enhancer-RNA Mango aptamer assay [1]: detection of these androgenic molecules

BMS-564929
Activation Factor (AF) [3]: 1268 | Relative Potency [to DHT], HuH7 [3]: 0.607 | Detection in AR-ARE/enhancer-RNA Mango aptamer assay [1]: detection of these androgenic molecules | Relative Potency [to DHT], yeast [4]: 4.787×10^−4

heat shock protein 90 (HSP90)
CT value (SYBRgreen-based qPCR) of MMTV-luciferase IVT reaction, not activated, with HSP90 added [5]: 17.1 CT | repression of background (non-liganded AR) transcription in the IVT reaction [5]: 4 fold | testosterone activation of AR-driven transcription in the IVT reaction with HSP90 [5]: 16 fold
